Reference: US7423149B2, “Substituted n-aryl amidines as selective D1 dopamine receptor antagonists for the treatment of obesity and CNS disorders” (Schering Corporation, priority 2003, dated 2008)

Target: T1, human Dopamine D1 receptor (Homo sapiens, UniProt P21728)
T1 construct: expressed in transfected cells; host or cells: Ltk- cells (mouse fibroblasts), membrane preparation
Experiment: radioligand binding competition assay, displacement of [3H]SCH 23390 from D1 receptor (Ltk-cells membranes);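 on D1 binding and D2:D1 Selectivity: under 5 nM class also requires D2 to D1 selectivity above 500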
Conditions: class combines Ki (D1) and, for A and B, D2:D1 selectivity (Ki D2 / Ki D1); read-out: D1 binding and D2:D1 Selectivity
Description: (§1) Biological Activity: Compounds from this disclosure have been biologically characterized by their ability to displace a known D1-like selective ligand, [3H]SCH 23390 from the human Dopamine D1 receptor, and a known D2-like selective ligand, [3H] Methylspiperone, from the human Dopamine D2 and D4 receptors.
(§2) Affinity values (Ki) of compounds at human dopamine receptors were ascertained using radioligand binding competition assays. Cells expressing D1 (Ltk-cells), D2 (long variant, Ltk-cells), D4 (CHO cells) and D5 (GH4C1 cells) receptors were lysed in hypotonic buffer for membrane preparation. Membranes were incubated with various concentrations of test compound and 1 nM [3H] SCH 23390 (D1 and D5) and 0.2 nM [3H] Methylspiperone for (D2 and D4) assays. Non-specific binding was defined as binding in the presence of 10 micromolar of SCH 23390 for D1 and D5 assays and 10 micromolar butaclamol for D2 and D4 assays. Following incubation to equilibrium (1 hour at room temperature), bound radioligand was separated from free by rapid filtration. Bound radioactivity on the dried filters was quantified by liquid scintillation counting.
(§3) Selectivity is determined by dividing Ki for D2, D4 or D5 receptors by Ki for D1 receptor.

T1 sequence (P21728 whole entry): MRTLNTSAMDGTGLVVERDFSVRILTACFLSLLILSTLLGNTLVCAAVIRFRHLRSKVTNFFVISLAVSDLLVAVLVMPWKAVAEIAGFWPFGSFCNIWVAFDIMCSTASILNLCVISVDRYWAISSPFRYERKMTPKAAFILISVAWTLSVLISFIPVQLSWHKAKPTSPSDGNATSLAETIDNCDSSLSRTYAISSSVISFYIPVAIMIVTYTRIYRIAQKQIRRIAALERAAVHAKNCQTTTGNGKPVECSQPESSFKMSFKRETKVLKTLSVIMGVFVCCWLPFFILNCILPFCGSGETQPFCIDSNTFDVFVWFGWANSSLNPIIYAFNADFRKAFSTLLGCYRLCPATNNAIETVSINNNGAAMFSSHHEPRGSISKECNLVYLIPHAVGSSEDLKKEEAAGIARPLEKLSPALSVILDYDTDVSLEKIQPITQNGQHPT

| Structure (SMILES) | Ki |
| --- | --- |
| N=C(/C=C/c1ccc(N2CCNCC2)cc1Cl)Nc1ccc(Cl)cc1 [Example 42, (E)-N-(4-Chlorophenyl)-3-[2-chloro-4(piperazin-1-yl)phenyl]-2-propenimidamide] | < 5 nM |
| COc1ccc(/C=C/C(=N)Nc2ccc(Cl)cc2)cc1 [Example 70] | 10 to 50 nM |
| COc1ccc(/C=C/C(=N)Nc2ccc(C)c([N+](=O)[O-])c2)cc1 [Example 130] | 50 to 10000 nM |
| COc1ccc(NC(=N)/C=C/c2ccccc2)cc1 [Example 117] | 50 to 10000 nM |
| N=C(/C=C/c1ccc(Cc2cccnc2)cc1)Nc1ccc2c(c1)OCO2 [Example 22] | 50 to 10000 nM |
| C[C@@H]1CNCCN1c1ccc(/C=C/C(=N)Nc2ccc(Cl)cc2)c(Cl)c1 [Example 39] | < 5 nM |
| CC1CCCCN1c1ccc(/C=C/C(=N)Nc2ccc(Cl)cc2)cc1 (stereo not drawn) [Example 32] | < 10 nM |
| CC1CCCCN1c1ccc(/C=C/C(=N)Nc2ccc(Cl)cc2)c(Cl)c1 (stereo not drawn) [Example 20] | < 10 nM |
| CC(C)N1CCN(c2ccc(/C=C/C(=N)Nc3ccc(Cl)cc3)c(Cl)c2)CC1 [Example 77] | 50 to 10000 nM |
| N=C(/C=C/c1ccc(CNCc2ccccc2)cc1)Nc1ccc(Cl)cc1 [Example 110] | 50 to 10000 nM |
| N=C(/C=C/c1c(Cl)cccc1Cl)Nc1ccc(Cl)cc1 [Example 103] | 50 to 10000 nM |
| N=C(Nc1ccc(Cl)cc1)c1ccc2cc(O)ccc2c1 [Example 106, N-(4-chloro-phenyl)-6-hydroxy-naphthalene-2-carboxamidine] | 50 to 10000 nM |
| COc1ccc(-c2ccc(/C=C/C(=N)Nc3ccc(Cl)cc3)cc2)cc1OC [Example 107] | 50 to 10000 nM |
| N=C(/C=C/c1ccc(Cl)c([N+](=O)[O-])c1)Nc1ccc(Cl)cc1 [Example 3] | 50 to 10000 nM |
| C[C@H]1CNCCN1c1ccc(/C=C/C(=N)Nc2ccc(Cl)cc2)c(Cl)c1 [Example 34] | < 5 nM |
| N=C(/C=C/c1ccc(N2CCCC2)cc1)Nc1ccc(Cl)cc1 [Example 90] | 50 to 10000 nM |
| N=C(Nc1ccc(Cl)cc1)c1ccc2cc(N3CCN(C4CCCCC4)CC3)ccc2c1 [Example 97] | 50 to 10000 nM |
| CC(C)(C)OC(=O)N1CCN(Cc2ccc(-c3ccc(/C=C/C(=N)Nc4ccc(Cl)cc4)cc3)cc2)CC1 [Example 75] | 50 to 10000 nM |
| COC(=O)C1CC1CN1CCN(c2ccc(/C=C/C(=N)Nc3ccc(Cl)cc3)c(Cl)c2)CC1 (stereo not drawn) [Example 46] | 10 to 50 nM |
| COc1ccc2cc(C(=N)Nc3ccc(Cl)cc3)ccc2c1 [Example 26] | 50 to 10000 nM |
| N=C(Nc1ccc(Cl)cc1)c1ccc2nc(N3CCNCC3)ccc2c1 [Example 79] | 50 to 10000 nM |
| COc1ccc(/C=C/C(=N)Nc2ccc(Cl)cc2)cc1OC [Example 69] | 10 to 50 nM |
| COc1ccc(/C=C/C(=N)Nc2cccc(C(F)(F)F)c2)cc1 [Example 1] | 50 to 10000 nM |
| N=C(/C=C/c1ccc2c(c1)OCO2)Nc1ccc(Cl)cc1 [Example 72] | 10 to 50 nM |
| N=C(/C=C/c1ccc(-c2ccc(CN3CCN(Cc4ccccc4)CC3)cc2)cc1)Nc1ccc(Cl)cc1 [Example 87] | 50 to 10000 nM |

| Structure (SMILES) | Ki |
| --- | --- |
| N=C(/C=C/c1ccc(CN2CCCC2)cc1)Nc1ccc(Cl)cc1 [Example 108] | 50 to 10000 nM |
| N=C(Nc1ccc(Cl)cc1)c1ccc2cccc(O)c2n1 [Example 66] | 10 to 50 nM |
| COc1ccc2cc(C(=N)Nc3ccc(Cl)cc3F)ccc2c1 [Example 119] | 50 to 10000 nM |
| COc1ccc(/C=C/C(=N)Nc2ccc(Br)cc2)cc1 [Example 23] | 10 to 50 nM |
| CCOc1ccc(CN2CCN(c3ccc(/C=C/C(=N)Nc4ccc(Cl)cc4)c(Cl)c3)CC2)cc1 [Example 62] | 10 to 50 nM |
| N=C(/C=C/c1ccc(CN2CCOCC2)cc1)Nc1ccc(Cl)cc1 [Example 116] | 50 to 10000 nM |
| N=C(/C=C/c1ccc(O)c(Cl)c1)Nc1ccc(Cl)cc1 [Example 92] | 50 to 10000 nM |
| N=C(CCc1ccc(Cc2c[nH]cn2)cc1)Nc1ccc(Cl)cc1 [Example 134] | 50 to 10000 nM |
| N=C(/C=C/c1ccccc1I)Nc1ccc(Cl)cc1 [Example 5] | 50 to 10000 nM |
| COc1ccccc1C1CCN(c2ccc(/C=C/C(=N)Nc3ccc(Cl)cc3)cc2)CC1 [Example 113] | 50 to 10000 nM |
| N=C(/C=C/c1ccc(Cl)cc1)Nc1ccc(Cl)cc1 [Example 80] | 50 to 10000 nM |
| CCC1CCCCN1c1ccc(/C=C/C(=N)Nc2ccc(Cl)cc2)cc1 (stereo not drawn) [Example 60] | 10 to 50 nM |
| COc1ccc(/C=C/C(=N)Nc2cccc(C)c2)cc1 [Example 17] | 50 to 10000 nM |
| N=C(/C=C/c1ccc(-c2ccc(C(F)(F)F)cc2)cc1)Nc1ccc(Cl)cc1 [Example 122] | 50 to 10000 nM |
| N=C(/C=C/c1ccc(N2CCNCC2)cc1Cl)Nc1ccc(O)c(Cl)c1 [Example 123] | 50 to 10000 nM |
| N=C(/C=C/c1ccc(-c2ccc(C=O)cc2)cc1)Nc1ccc(Cl)cc1 [Example 44] | < 10 nM |
| N#Cc1cccc(-c2ccc(/C=C/C(=N)Nc3ccc(Cl)cc3)cc2)c1 [Example 30] | 10 to 50 nM |
| COc1ccc(NC(=N)/C=C/c2ccc(Cc3cccnc3)cc2)cc1Cl [Example 9] | 50 to 10000 nM |
| N=C(/C=C/c1ccc(Cc2c[nH]cn2)cc1)Nc1ccc(Cl)cc1 [Example 57] | 10 to 50 nM |
| N=C(/C=C/c1ccc(Cc2cccnc2)cc1)Nc1ccc(Cl)cc1 [Example 48] | 10 to 50 nM |
| COc1ccc(/C=C/C(=N)Nc2ccc(OC)c(OC)c2)cc1 [Example 129] | 50 to 10000 nM |
| N=C(/C=C/c1ccc(N2CCN(c3ccccc3)CC2)cc1)Nc1ccc(Cl)cc1 [Example 104] | 50 to 10000 nM |
| N=C(Nc1ccc(Cl)cc1)c1ccc2[nH]ccc2c1 [Example 89] | 50 to 10000 nM |
| N=C(/C=C/c1ccc(Cc2cccnc2)cc1)Nc1ccc(OC(F)(F)F)cc1 [Example 124] | 50 to 10000 nM |

Same assay, conditions: human D1 receptor, [3H] SCH 23390; read-out: Ki (D1) value

| Structure (SMILES) | Ki |
| --- | --- |
| N=C(/C=C/c1ccc(N2CCNCC2)cc1Cl)Nc1ccc(Cl)cc1 [Example 42, (E)-N-(4-Chlorophenyl)-3-[2-chloro-4(piperazin-1-yl)phenyl]-2-propenimidamide] | 0.9 nM |

Target: T2, human Dopamine D2 receptor (Homo sapiens, UniProt P14416)
T2 construct: expressed in transfected cells; host or cells: Ltk- cells (mouse fibroblasts), membrane preparation
Experiment: radioligand binding competition assay, displacement of [3H] Methylspiperone from D2 receptor (long variant, Ltk-cells membranes)
Conditions: Ki for D2 divided by Ki for D1
Description: as §1, §2, §3

T2 sequence (P14416 whole entry): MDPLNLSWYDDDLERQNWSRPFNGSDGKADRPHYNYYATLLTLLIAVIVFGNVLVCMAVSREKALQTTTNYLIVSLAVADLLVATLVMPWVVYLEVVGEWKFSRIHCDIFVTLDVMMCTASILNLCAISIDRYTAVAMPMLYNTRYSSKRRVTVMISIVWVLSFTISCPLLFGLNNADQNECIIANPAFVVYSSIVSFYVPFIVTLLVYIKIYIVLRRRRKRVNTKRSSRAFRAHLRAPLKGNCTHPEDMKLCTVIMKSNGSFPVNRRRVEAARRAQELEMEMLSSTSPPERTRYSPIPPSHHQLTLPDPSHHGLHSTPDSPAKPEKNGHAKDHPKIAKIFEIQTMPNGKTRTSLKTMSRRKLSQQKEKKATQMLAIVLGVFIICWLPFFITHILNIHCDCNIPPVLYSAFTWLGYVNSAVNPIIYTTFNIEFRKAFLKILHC

| Structure (SMILES) | D2:D1 ratio value |
| --- | --- |
| N=C(/C=C/c1ccc(N2CCNCC2)cc1Cl)Nc1ccc(Cl)cc1 [Example 42, (E)-N-(4-Chlorophenyl)-3-[2-chloro-4(piperazin-1-yl)phenyl]-2-propenimidamide] | 1258.5 |
